Consider nine molecules from patent US20260258084A1, “New Peptides as Selective IL-23 Receptor Antagonists” (Sanofi, priority 2022, published 2026).

The target in series [1] is T1, human interleukin-23 receptor (recombinant human IL-23R-Fc chimera) (Homo sapiens, UniProt Q5VWK5).
T1 construct: Fc (IgG Fc fusion)
Put plainly: Human ELISA IL23/IL23R (assay for specific human IL23R antagonists). Type of series: binding. The note with it: Table 10; read-out: Human ELISA IL23/IL23R IC50. The procedure:
Antagonism of compounds for human interleukin-23 receptor antagonists, was determined by an ELISA assay.
A 384-well plate was coated with 50 μl/well of human IL23 at a final concentration of […] and incubated overnight at 4° C. The wells were washed 3 times with 80 μl wash buffer and blocked with 80 μl blocking buffer for 60 minutes at room temperature and washed again. 20 μl of serially diluted test peptides was added to each well and subsequently 20 μl of recombinant human IL-23R-Fc chimera at final concentration of 0.1 μg/ml. The plate was incubated for 60 minutes at room temperature. After the wells were washed, bound IL23R-Fc was detected with goat anti-hu-IgG1-HRP antibody. Signals were visualized with QuantaBlu Fluorogenic Peroxidase Substrate.

Series [2] in a line: Solubility testing of peptides at different pH. Type of series: physicochemical. The note with it: target concentration 1 mg/ml, 2 hours agitation. The procedure: Prior to the solubility measurement of a synthesized peptide batch, its purity was determined through UPLC/MS (methods B-G).
For solubility testing the target concentration was 1 mg pure compound/ml. Therefore, solutions from solid samples were prepared in a buffer system at a concentration of 1 mg/mL compound. The solid samples were obtained by drying down aliquots of a dimethyl sulfoxide stock solution using a Thermo Speedvac vacuum centrifuge. The dry down time was 3 hours. • Solubility buffer system A) 50 mM HCl pH 1.2 • Solubility buffer system B) 50 mM phosphate buffer pH 6.5 • Solubility buffer system C) 50 mM phosphate buffer pH 7.4 • Solubility buffer system D) 50 mM phosphate buffer pH 9.0
UPLC-UV (Method A) was performed after 2 hours of gentle agitation from the filtered (0.45 μm filter plates) solutions, which was obtained by 10 mins of centrifugation forced filtration at 1500 RCF (relative centrifugal acceleration).
The solubility was determined by the comparison of the UV peak area of 2 μL-injections of a buffered sample diluted 1:5 with a standard curve of a dimethyl sulfoxide reference sample of the diluted in dimethyl sulfoxide with known concentration. The different extinction coefficients were taken into account for the calculation.

The nature of series [3]: Chemical stability assessment of peptides (relative purity loss). Type of series: physicochemical. As to conditions: 24 hours at 37° C. As to the method:
Purity of a peptide batch was determined through UPLC/MS (Methods B-G) prior to chemical stability measurement. The target concentration was 1 mg/ml pure compound. Solutions from solid samples were prepared in the following buffer systems with a concentration of 1 mg/ml compound based on the previously determined % purity: • Solubility buffer system A) 50 mM HCl pH 1.2+Acetonitrile (1:1) • Solubility buffer system B) 50 mM phosphate buffer pH 6.5+Acetonitrile (1:1) • Solubility buffer system C) 50 mM phosphate buffer pH 7.4+Acetonitrile (1:1)
Prepared solutions were stored for 24 hours at 2° C. and 37° C. After this time course, the samples were centrifuged for 15 min at 2500 RCF to create a 1:5 dilution of the supernatant. Then 2 μl of the dilution were analysed with UHPLC-UV.
The chemical stability was rated through the relative loss of purity calculated by the equation:
[(purity after 0 hours at 37° C.)−(purity after 24 hours at 37° C.)]/(purity after 0 hours at 37° C.)]*100%
The purity is calculated as [(peak area peptide)/(total peak area)]*100%.

Series [4] has as its system T2, Pepsin.
T2 construct: purchased Merck Millipore
Put plainly: Protease stability in simulated gastric fluid (Pepsin-SGF, FaSSGF). Type of series: in vitro ADME. The note with it: simulated gastric fluid with pepsin (Pepsin-SGF), 60 min, 1 μM peptide, 37° C., read-out: FaSSGF 60 (min), remaining percent of peptide. As to the method:
(§1) Studies were carried out in simulated intestinal fluid (SIF) and simulated gastric fluid (SGF) to evaluate gastric stability of the peptide compounds disclosed herein.
For clarification the term “Pepsin-SGF” refers to a solution of simulated gastric fluid containing pepsin whereas “SGF media” refers to a solution of simulated gastric fluid without pepsin. Pepsin-SGF was prepared by dissolving 320 mg Pepsin (Merck Millipore) in 100 mL SGF media concentrate (ProSense).
(§2) Peptides were first dissolved at 1 mM stock concentration in 0.01 HCl (+/−10% of DMSO) and were than diluted further with water to a stock concentration of 20 μM. Final peptide concentration in the incubation was 1 μM.
(§3) To 76 μL of the Pepsin-SGF buffer, 4 μL of the 20 μM peptide stock solution was added and incubated at 37° C. At each timepoint (0, 60, 120 and 240 minutes) the reaction was quenched with addition of 80 μL Ethanol (0.1% HCOOH). The samples were centrifuged for 20 minutes and an aliquot of the supernatant 100 μL were transferred to a LoBind-MTP plate and analyzed by LCMS/MS. The peak area response was calculated at each time point for each test compound. As internal reference, the peak area response of the same test compound at TO was calculated. The percent remaining at each timepoint was calculated based on the peak area response ratio of the test compound at TO. Time 0 was set to 100%, and all later timepoints were calculated relative to time 0.

The test system of series [5] is Pancreatin. Put plainly: Protease stability in simulated intestinal fluid (Pancreatin-SIF, FaSSIF). Type of series: in vitro ADME. The note with it: 1 μM peptide, 37° C. As to the method:
as §1
Similarly, the term “Pancreatin-SIF” refers to a solution of simulated intestinal fluid containing pancreatin whereas “SIF-media” refers to a solution of simulated intestinal fluid without pancreatin.
Pancreatin-SIF was prepared by dissolving 1 mg Pancreatin (MP Biomedicals) in 10 mL SIF media concentrate (ProSense).
as §2
as §3, with “µM” for “μM”

For series [6], the target named is T3, IL-23 receptor on the surface of HEK-Blue IL-23 cells (UniProt Q5VWK5 24-629, limits assumed).
T3 sequence (looked up): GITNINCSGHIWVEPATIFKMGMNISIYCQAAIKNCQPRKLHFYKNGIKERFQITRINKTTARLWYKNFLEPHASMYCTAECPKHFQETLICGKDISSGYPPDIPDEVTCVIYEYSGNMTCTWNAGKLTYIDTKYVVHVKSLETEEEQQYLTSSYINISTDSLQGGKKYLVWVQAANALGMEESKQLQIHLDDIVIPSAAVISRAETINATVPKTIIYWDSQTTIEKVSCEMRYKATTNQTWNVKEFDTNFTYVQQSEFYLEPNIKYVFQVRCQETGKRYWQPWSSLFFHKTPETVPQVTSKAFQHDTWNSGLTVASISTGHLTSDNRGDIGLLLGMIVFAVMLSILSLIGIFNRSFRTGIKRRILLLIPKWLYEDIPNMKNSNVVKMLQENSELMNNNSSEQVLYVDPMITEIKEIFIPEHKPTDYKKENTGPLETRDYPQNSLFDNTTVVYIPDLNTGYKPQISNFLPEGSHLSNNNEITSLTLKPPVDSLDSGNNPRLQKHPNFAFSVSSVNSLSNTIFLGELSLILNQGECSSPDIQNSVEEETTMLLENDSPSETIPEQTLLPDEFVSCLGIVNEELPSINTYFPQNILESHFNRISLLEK
The series is described as follows: cell-based or functional assay.

Values after ≈ are worked out from the molar mass of the structure shown. Read-outs that look alike come from different tables or passages of the source. Starred links: 1 amine or outer side, 2 acyl side, 3 side chain; linkers in the order of their positions; H or OH if unused. Positions of bridges follow the written chain, without caps; N, C: chain ends. Non-standard residues stand in square brackets, D forms with d. No end group written: not given here. Yde = (2S)-2-amino-3-[4-[2-(dimethylamino)ethoxy]phenyl]propanoic acid, CN(C)CCOc1ccc(C[C@H](N[*:1])C(=O)[*:2])cc1; Trp(7-Me) = Cc1cccc2c(C[C@H](N)C(=O)O)c[nH]c12; αMeLys(Me2) = CN(C)CCCC[C@](C)(N)C(=O)O; 2Nal = N[C@@H](Cc1ccc2ccccc2c1)C(=O)O; εLys = N[C@@H](CCCCN[*:1])C(=O)[*:2]; 3Pal = N[C@@H](Cc1cccnc1)C(=O)O; Dad = desamino-aspartamic acid; Lys(Me) = CNCCCC[C@H](N)C(=O)O; αMeL = CC(C)C[C@](C)(N)C(=O)O; Aib = CC(C)(N)C(=O)O; Sar = CNCC(=O)O Some results are limits rather than exact numbers.

Take `CC(=O)NCCCC[C@@H]1NC(=O)[C@H](Cc2c[nH]c3c(C)cccc23)NC(=O)[C@@H](NC(C)=O)CCCCNC(=O)[C@@H]2CSSC[C@H](NC1=O)C(=O)N[C@@H](Cc1ccc(OCCN(C)C)cc1)C(=O)N[C@@H](Cc1ccc3ccccc3c1)C(=O)NC1(CCOCC1)C(=O)N[C@H](C(=O)N[C@@H](CC(N)=O)C(=O)N[C@@H](Cc1cccnc1)C(=O)N(C)CC(N)=O)CCCCN(C)CCCCN2C` [compound 127]: in series [1], the IC50 was determined as 0.53 nM. For the same molecule, the solubility at 2 h was not below 1520 µg/mL in series [2] (50 mM HCl buffer, 50 mM HCl pH 1.2, read-out: Solubility Buffer pH 1.2); not below 1130 µg/mL in series [2] (50 mM phosphate buffer pH 6.5, read-out: Solubility Buffer pH 6.5); not below 1120 µg/mL in series [2] (50 mM phosphate buffer pH 7.4, read-out: Solubility Buffer pH 7.4); 620 µg/mL (≈ 333 µM) in series [2] (50 mM phosphate buffer pH 9.0, read-out: Solubility Buffer pH 9.0). Moreover, the “Chemical stability (relative purity loss) Buffer pH 1.2” value in series [3] (50 mM HCl pH 1.2 + acetonitrile (1:1)) was determined as 6.0%. For the same molecule, in series [3] (50 mM phosphate buffer pH 6.5 + acetonitrile (1:1)), the “Chemical stability (relative purity loss) Buffer pH 6.5” value stood at 9.0%. Also, in series [3] (50 mM phosphate buffer pH 7.4 + acetonitrile (1:1)), the “Chemical stability (relative purity loss) Buffer pH 7.4” value stood at 11.0%. The fraction remaining at 1 h, 1 µM in series [4] is 100%; in series [5] (60 min, read-out: FaSSIF 60 (min), remaining percent of peptide), 99%. For the same molecule, in series [5] (120 min, read-out: FaSSIF 120 (min), remaining percent of peptide), the share remaining at 2 h, 1 µM was 101%. Also, the fraction remaining at 4 h, 1 µM in series [5] (240 min, read-out: FaSSIF 240 (min), remaining percent of peptide) is 97%.

B1: Compound of SEQ ID NO: 156 (peptide)
peptide: [Dad]CNT[Trp(7-Me)]K(Ac)C[Yde][2Nal][αMeLys(Me2)][Lys(Me)]N[3Pal][Sar]-NH2
modifications: lactam (positions not given here); disulfide 2-7; not fully specified (bridges); printed as Dad(§1)-C(@2)-N-T-Wim-K[Ac]-C(@2)-Yde-Nal-MKdm-Kme(§1)-N-Pal-Sar-NH2
On to B1, for which the “pSTAT3 (nM)” value in series [6] came out at 0.08 nM.

B2: Compound of SEQ ID NO: 150 (peptide)
peptide: [Dad]CNT[Trp(7-Me)]LC[Yde][2Nal][αMeLys(Me2)]KN[3Pal]-NH2
modifications: lactam (positions not given here); disulfide 2-7; not fully specified (bridges); printed as Dad(§1)-C(@2)-N-T-Wim-L-C(@2)-Yde-Nal-MKdm-K(§1)-N-Pal-NH2
In the case of B2, the “pSTAT3 (nM)” value in series [6] came out at 0.13 nM.

B3: Compound of SEQ ID NO: 155 (peptide)
peptide: [Dad]CNT[Trp(7-Me)]LC[Yde][2Nal][αMeLys(Me2)]KA[3Pal][Sar]-NH2
modifications: lactam (positions not given here); disulfide 2-7; not fully specified (bridges); printed as Dad(§1)-C(@2)-N-T-Wim-L-C(@2)-Yde-Nal-MKdm-K(§1)-A-Pal-Sar-NH2
Consider B3, for which the “pSTAT3 (nM)” value in series [6] was found to be 0.1 nM.

B4: Compound of SEQ ID NO: 157 (peptide)
peptide: [Dad]CNT[Trp(7-Me)]K(Ac)C[Yde][2Nal][Aib]KN[3Pal][Sar]-NH2
modifications: lactam (positions not given here); disulfide 2-7; not fully specified (bridges); printed as Dad(§1)-C(@2)-N-T-Wim-K[Ac]-C(@2)-Yde-Nal-Aib-K(§1)-N-Pal-Sar-NH2
As for B4, in series [6], the “pSTAT3 (nM)” value turned out to be 0.06 nM.

B5: Compound of SEQ ID NO: 158 (peptide)
peptide: [Dad]C[εLys][Trp(7-Me)]LC[Yde][2Nal][αMeL]KN[3Pal][Sar]-NH2
modifications: disulfide 2-6; lactam 1-10; also: K3 acetylated (K[aAc]), acetyl site not given here, ε-NH2 takes the Cys2 bond
On to B5, for which the “pSTAT3 (nM)” value in series [6] came out at 0.39 nM.
As for XCNTWQCXXXDNG (not fully specified; Ahx(§1)-C(@2)-N-T-W-Q-C(@2)-Yae-Nal-Aib-D(§1)-N-G-NH2) [Compound of SEQ ID NO: 9], the “pSTAT3 (nM)” value in series [6] turned out to be 65 nM.

B6: Compound of SEQ ID NO: 154 (peptide)
peptide: [Dad]CNT[Trp(7-Me)]LC[Yde][2Nal][αMeLys(Me2)]KN[3Pal][Sar]-NH2
modifications: lactam (positions not given here); disulfide 2-7; not fully specified (bridges); printed as Dad(§1)-C(@2)-N-T-Wim-L-C(@2)-Yde-Nal-MKdm-K(§1)-N-Pal-Sar-NH2
Regarding B6, the “pSTAT3 (nM)” value in series [6] stood at 0.08 nM.

B7: Compound of SEQ ID NO: 151 (peptide)
peptide: [Dad]CNT[Trp(7-Me)]K(Ac)C[Yde][2Nal][αMeLys(Me2)]KN[3Pal][Sar]-NH2
modifications: lactam (positions not given here); disulfide 2-7; not fully specified (bridges); printed as Dad(§1)-C(@2)-N-T-Wim-K[Ac]-C(@2)-Yde-Nal-MKdm-K(§1)-N-Pal-Sar-NH2
Consider B7, for which the “pSTAT3 (nM)” value in series [6] is 0.06 nM.
